Assay results reported in patent US10765114B2, “4-amino-6-(pyridyl and 2-substitutedphenyl)-picolinates and 6-amino-2-(pyridyl and 2-substitutedphenyl)-pyrimidine-4-carboxylates and their use as herbicides” (Dow AgroSciences LLC, priority 2013, dated 2020).
Read-outs that look alike come from different tables or passages of the source.

Tests used:
[1] = tested on: Key Broadleaf Weed and Crop Species; assay: Post-Emergent Test II (Table 5); format: in vivo; conditions: post-emergence, 336 h; for pest or weed control at 70 g/ha: application rate 70 (kg ai/ha; footnote: g ai/ha); for pest or weed control at 140 g/ha: application rate 140 (kg ai/ha; footnote: g ai/ha)
In short: (§1)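 Visual injury ratings (0 = no injury, 100 = complete kill) were taken 14 days after treatment relative to untreated plants. Seedlings at the first or second true leaf stage received an overhead spray at 187 L/ha, and solvent-blank sprayed plants served as controls.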

[2] = tested on: Key Grass and Sedge Weeds as well as Grass Crops; assay: Post-Emergent Test II (Table 6); format: in vivo; conditions: post-emergence, 336 h, 14 days after application; for pest or weed control at 70 g/ha: 70 g ai/ha; for pest or weed control at 140 g/ha: 140 g ai/ha
In short: as §1

[3] = Abutilon theophrasti, ABUTH: velvetleaf (Abutilon theophrasti), read-out: Visual Growth Reduction (%) 14 Days After Application ABUTH
[4] = Amaranthus retroflexus, AMARE: redroot pigweed (Amaranthus retroflexus), read-out: Visual Growth Reduction (%) 14 Days After Application AMARE
[5] = Brassica napus, BRSSS: oilseed rape, canola (Brassica napus), read-out: Visual Growth Reduction (%) 14 Days After Application BRSSS
[6] = Chenopodium album, CHEAL: lambsquarters (Chenopodium album), read-out: Visual Growth Reduction (%) 14 Days After Application CHEAL
[7] = Euphorbia heterophylla, EPHHL: wild poinsettia (Euphorbia heterophylla), read-out: Visual Growth Reduction (%) 14 Days After Application EPHHL
[8] = Helianthus annuus, HELAN: sunflower (Helianthus annuus), read-out: Visual Growth Reduction (%) 14 Days After Application HELAN
[9] = Viola tricolor, VIOTR: wild pansy (Viola tricolor), read-out: Visual Growth Reduction (%) 14 Days After Application VIOTR
[10] = CYPSS, read-out: Visual Growth Reduction (%) 14 Days After Application CYPSS
[11] = DIGSA: crabgrass (Digitaria sanguinalis), read-out: Visual Growth Reduction (%) 14 Days After Application DIGSA
[12] = ECHSS, read-out: Visual Growth Reduction (%) 14 Days After Application ECHSS
[13] = ORYSS (crop), read-out: Visual Growth Reduction (%) 14 Days After Application ORYSS
[14] = SETFA: giant foxtail (Setaria faberi), read-out: Visual Growth Reduction (%) 14 Days After Application SETFA
[15] = SORVU: grain sorghum (Sorghum vulgare), read-out: Visual Growth Reduction (%) 14 Days After Application SORVU
[16] = TRZSS (crop), read-out: Visual Growth Reduction (%) 14 Days After Application TRZSS
[17] = ZEAMX: maize, corn (Zea mays), read-out: Visual Growth Reduction (%) 14 Days After Application ZEAMX

| SMILES | pest or weed control at 70 g/ha [1, 3] [%] | pest or weed control at 140 g/ha [1, 3] [%] | pest or weed control at 70 g/ha [1, 4] [%] | pest or weed control at 140 g/ha [1, 4] [%] | pest or weed control at 70 g/ha [1, 5] [%] | pest or weed control at 140 g/ha [1, 5] [%] | pest or weed control at 70 g/ha [1, 6] [%] | pest or weed control at 140 g/ha [1, 6] [%] | pest or weed control at 70 g/ha [1, 7] [%] | pest or weed control at 140 g/ha [1, 7] [%] | pest or weed control at 70 g/ha [1, 8] [%] | pest or weed control at 140 g/ha [1, 8] [%] | pest or weed control at 70 g/ha [1, 9] [%] | pest or weed control at 140 g/ha [1, 9] [%] | pest or weed control at 70 g/ha [2, 11] [%] | pest or weed control at 140 g/ha [2, 11] [%] | pest or weed control at 70 g/ha [2, 12] [%] | pest or weed control at 140 g/ha [2, 12] [%] | pest or weed control at 70 g/ha [2, 13] [%] | pest or weed control at 140 g/ha [2, 13] [%] | further results |
| --- | --- | --- | --- | --- | --- | --- | --- | --- | --- | --- | --- | --- | --- | --- | --- | --- | --- | --- | --- | --- | --- |
| COC(=O)c1nc(-c2ccc(I)nc2)c(F)c(N)c1Cl [Compound 54, methyl 4-amino-5-chloro-3-fluoro-6′-Iodo-[2,3′-bipyridine]-6-carboxylate] | 85 to 94 | 85 to 94 | 85 to 94 | 85 to 94 | 85 to 94 | 95 to 100 | 95 to 100 | 95 to 100 | 75 to 84 | 85 to 94 | 85 to 94 | 95 to 100 | 75 to 84 | 85 to 94 | 60 to 74 | 75 to 84 | 75 to 84 | 85 to 94 | 0 to 29 | 0 to 29 | pest or weed control at 70 g/ha [2, 10]: 75 to 84%; pest or weed control at 140 g/ha [2, 10]: 85 to 94%; pest or weed control at 70 g/ha [2, 14]: 60 to 74%; pest or weed control at 140 g/ha [2, 14]: 60 to 74%; pest or weed control at 70 g/ha [2, 15]: 45 to 59%; pest or weed control at 140 g/ha [2, 15]: 60 to 74%; pest or weed control at 70 g/ha [2, 16]: 60 to 74%; pest or weed control at 140 g/ha [2, 16]: 75 to 84%; pest or weed control at 70 g/ha [2, 17]: 45 to 59%; pest or weed control at 140 g/ha [2, 17]: 60 to 74% |
| Nc1c(F)c(-c2ccc(I)nc2)nc(C(=O)O)c1Cl [Compound 81] | 85 to 94 | 85 to 94 | 95 to 100 | 95 to 100 | 85 to 94 | 85 to 94 | 95 to 100 | 95 to 100 | 95 to 100 | 95 to 100 | 75 to 84 | 85 to 94 | 95 to 100 | 95 to 100 | 75 to 84 | 75 to 84 | 85 to 94 | 85 to 94 | 45 to 59 | 60 to 74 | pest or weed control at 70 g/ha [2, 10]: 95 to 100%; pest or weed control at 140 g/ha [2, 10]: 95 to 100%; pest or weed control at 70 g/ha [2, 14]: 75 to 84%; pest or weed control at 140 g/ha [2, 14]: 85 to 94%; pest or weed control at 70 g/ha [2, 15]: 45 to 59%; pest or weed control at 140 g/ha [2, 15]: 45 to 59%; pest or weed control at 70 g/ha [2, 16]: 60 to 74%; pest or weed control at 140 g/ha [2, 16]: 60 to 74%; pest or weed control at 70 g/ha [2, 17]: 30 to 44%; pest or weed control at 140 g/ha [2, 17]: 45 to 59% |
| COC(=O)c1nc(-c2ccc(Cl)c(F)c2SC)cc(N)c1Cl [Compound 58] | 85 to 94 | 85 to 94 | 85 to 94 | 95 to 100 | 30 to 44 | 60 to 74 | 95 to 100 | 95 to 100 | 0 to 29 | 0 to 29 | 0 to 29 | 75 to 84 | 0 to 29 | 0 to 29 | 0 to 29 | 0 to 29 | 0 to 29 | 0 to 29 | 0 to 29 | 0 to 29 | pest or weed control at 70 g/ha [2, 14]: 0 to 29%; pest or weed control at 140 g/ha [2, 14]: 0 to 29%; pest or weed control at 70 g/ha [2, 15]: 0 to 29%; pest or weed control at 140 g/ha [2, 15]: 0 to 29%; pest or weed control at 70 g/ha [2, 16]: 0 to 29%; pest or weed control at 140 g/ha [2, 16]: 0 to 29%; pest or weed control at 70 g/ha [2, 17]: 0 to 29%; pest or weed control at 140 g/ha [2, 17]: 0 to 29% |
| Nc1c(F)c(-c2ccc(Cl)c(Cl)c2Cl)nc(C(=O)O)c1Cl [Compound 10] | 0 to 29 | 0 to 29 | 95 to 100 | 95 to 100 | 95 to 100 | 95 to 100 | 75 to 84 | 75 to 84 | 60 to 74 | 75 to 84 | 0 to 29 | 0 to 29 | 0 to 29 | 0 to 29 | 0 to 29 | 45 to 59 | 0 to 29 | 0 to 29 | 0 to 29 | 0 to 29 | pest or weed control at 70 g/ha [2, 10]: 0 to 29%; pest or weed control at 140 g/ha [2, 10]: 0 to 29%; pest or weed control at 70 g/ha [2, 14]: 0 to 29%; pest or weed control at 140 g/ha [2, 14]: 0 to 29%; pest or weed control at 70 g/ha [2, 15]: 0 to 29%; pest or weed control at 140 g/ha [2, 15]: 0 to 29%; pest or weed control at 70 g/ha [2, 16]: 75 to 84%; pest or weed control at 140 g/ha [2, 16]: 85 to 94%; pest or weed control at 70 g/ha [2, 17]: 60 to 74%; pest or weed control at 140 g/ha [2, 17]: 60 to 74% |
